Measured values from EP4592286A1, “MACROCYCLIC NITROGEN-CONTAINING CROWN ETHER COMPOUND AND USE THEREOF AS PROTEIN KINASE INHIBITOR” (Artivila Biopharma, priority 2022, dated 2024).
Converted amounts (≈) assume the structure as drawn.

Columns and labels:
MV-4-11 cells = experiment: CDK9 cell activity test (Cell Titer-GLO cell growth inhibition), MV-4-11; assay type: cell-based; conditions: Homo sapiens, MV4-11, 72 hours
Method: In these experiments, the cell line MV-4-11 was cultured in IMDM culture solution (containing 100 U/mL penicillin and 0.1 g/L streptomycin), the cell line HCC1187 was cultured in RPMI-1640 culture solution (containing 100 U/mL penicillin and 0.1 g/L streptomycin) containing 10% fetal bovine serum, the cell line Mia Paca-2 was cultured in DMEM (containing 100 U/mL penicillin and 0.1 g/L streptomycin) containing 10% fetal bovine serum and 2.5% horse serum, and the cell line A375 was cultured in RPMI-1640 culture solution (containing 100 U/mL penicillin and 0.1 g/L streptomycin) containing 10% fetal bovine serum. All cells were cultured in a saturated humidity incubator with 37 °C and 5% CO2.
When MV-4-11 cells, HCC-1187 cells, Mia Paca-2 cells and A375 cells grew to 80% -90% confleuncy, they were digested with trypsin, resuspended, counted and diluted to a certain cell density with complete medium, and inoculated into 96-well plate at 100 µL/well. With complete medium as background control, they were cultured overnight in a saturated humidity incubator with 37°C and 5% CO2. The compound was diluted to 200-fold of the final concentration using DMSO, 3 µL of DMSO storage solution of the above compound was added to 197 µL of complete medium, 50 µL of compound diluted in medium was added to cells in each well, and cultivated in a saturated humidity incubator with 37°C and 5% CO2 for 72 hours. After 72 hours, the culture plate was placed at room temperature for equilibrium, and 40 µl of Cell Titer-GLO® reagent was added to each well. The cells were lysed by mixing evenly for 2 minutes using a shaker, incubated at room temperature for 60 minutes to stabilize the chemiluminescence signal, and the chemiluminescence was read by PE EnVision microtiter plate reader. The cell growth inhibition rate Inh%=(DMSO well - compound treatment well)/(DMSO well - background well)×100 was calculated, and the cell growth IC50 value was obtained by fitting with GraphPad Prism 5 .

CDK9 = CDK9 (Homo sapiens, UniProt P50750); experiment: experiment of inhibiting kinase activity (Caliper mobility shift assay), CDK9; assay type: biochemical; conditions: for inhibition at 0.01 µM: at 10 nM; for IC50: kinase activity assay, Table 3
Outline: (§1)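 Mobility-shift readout of substrate conversion; % inhibition normalized to uninhibited-enzyme wells (0%) and buffer-only background wells. Dosing: single points at 10 and 100 nM, or 3-fold series from 10 µM (10 conc.), replicates. Kinase + compound 10 min RT, then ATP/substrate.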

LRRK2 = LRRK2 (Homo sapiens, UniProt Q5S007); experiment: experiment of inhibiting kinase activity, LRRK2; assay type: biochemical; conditions: for IC50: kinase activity assay, Table 3
Method: (§2) The inhibition rates of tested compounds on JAK1, JAK2, JAK3, TYK2, CDK7, CDK9, EGFR (T790M) and LRRK2 kinases were measured. The test concentrations of the compounds were 10 nM and 100 nM, and the detection was performed by replicate wells. Alternatively, compounds were 3-fold serial diluted from 10 µM for 10 concentrations in replicate wells.

LRRK2 (G2019S) = molecular target: T1, LRRK2 (G2019S) (Homo sapiens, UniProt Q5S007, G2019S); experiment: detection of phosphorylated S935 in HEK293T overexpressing full-length LRRK2 (G2019S); assay type: cell-based; conditions: pS935, HEK293T overexpressing LRRK2 (G2019S), 1.5 hours
T1 construct: pcDNA5-FRT/TO-FLAG LRRK2 (G2019S, full-length); expressed in transfected cells; host or cells: HEK293T
Method: (§3) Detection of phosphorylated S935 in HEK293T Overexpressing full-length LRRK2 (G2019S) or wild-type LRRK2
(§4) HEK293T cells was inoculated into a 6-well plate and cultured overnight. The next day, they were transiently transfected with plasmid pcDNA5-FRT/TO-FLAG LRRK2 (G2019S, full-length) or pCMV-flag-WT LRRK2 (full-length) by using Superfect transfection reagent and cultured at 37°C and 5% CO2 for 20-24 hours. The next day, cells were collected, resuspended at a density of 0.48×10^6 cells/ml, and inoculated into a 384-well plate at 50 microliters/well. Compound or DMSO solutions (volume ratio of 0.5%) were added by Tecan, and cultured at 37°C and 5% CO2 for 1.5 hours. After 1.5 hours, the supernatant was discarded, 50 microliters of 8% PFA were added in each well to fix the cells, and the cells were incubated at room temperature for 1 hour. The plate was washed with EL406 plate washer for three times, with 115 microliters of PBST per well, and the culture plate was patted to dryness. The cells were blocked with 50 microliters/well of Licor Odyssey blocking solution (0.1% Tween 20) at room temperature for 1.5 hours. The blocking solution was discarded and the culture plate was patted to dryness. 20 microliters of primary antibody (1:1000(pS935), diluted with Licor Odyssey buffer (0.1% Tween20)) was added into each well, and incubated at 4 °C overnight. The next day, the first antibody was discarded and washing was performed with PBST for five times. 20 microliters of secondary antibody (diluted with Licor Odyssey buffer (0.1% Tween20) at 1:500 and stained with DNA at 1:2000) were added into each well, and incubated at room temperature for 1 hour. The second antibody was discarded, and washing was performed for three times with PBST. The fluorescence intensity was measured by LICOR Odyssey imager Scanner, and the data was analyzed.

wild-type LRRK2 = molecular target: T2, wild-type LRRK2 (Homo sapiens, UniProt Q5S007); experiment: detection of phosphorylated S935 in HEK293T overexpressing wild-type LRRK2; assay type: cell-based; conditions: pS935, HEK293T overexpressing wild-type LRRK2, 1.5 hours
T2 construct: pCMV-flag-WT LRRK2 (full-length); expressed in transfected cells; host or cells: HEK293T
Method: as §3, §4

[1] = measurement of the solubility of compounds in water and diluted hydrochloric acid; assay type: physicochemical; conditions: thermodynamic from solid
Method: Example 117: measurement of the solubility of compounds in water and diluted hydrochloric acid
The compounds were dissolved in acetonitrile (LCMS pure) and prepared into standard samples having the concentration gradient of 1000 µg/mL, 500 µg/mL, 250 µg/mL, 125 µg/mL, 62.5 µg/mL, and 31.25 µg/mL.
(§5) About 1.0 mg of the powder of the compound to be tested was weighed and added to 0.3 mL of ultrapure water (pH-6), the resulting mixture was shaked thoroughly at room temperature overnight and centrifuged, and the supernatant was taken and diluted 10 times with acetonitrile. The sample was analyzed after mixing evenly.
as §5, with “153.8 µL of 6 M HCl was pipetted, 20 mL of water was added, and mixed evenly to prepare diluted hydrochloric acid solution A (pH-1.5). About” for “About”, “diluted hydrochloric acid solution A,” for “ultrapure water (pH-6),”, “for 1 hour” for “overnight”
The standard sample and the sample to be tested were analyzed by Shimadzu LCMS-2020, where chromatographic column was Skim-psck GIST 5 µm C18 2.1*[…]; mobile phase A was water and mobile phase B was methanol; and flow rate was 0.3 mL/min. The gradient of B was as the following: 0 min: 10%; 0-1.0 min: 10%; 1.0-2.5 min: 95%; 3.0-4.0 min: 95%; 4.0-4.1 min: 10%; 4.1-6.0 min: 10%.
The relationship between the concentration and peak area of the standard sample was ploted into a standard curve, and the concentration of the sample to be tested was calibrated using this standard curve. Compound solubility = concentration of the sample to be tested × 10 [formula]

JAK1 = JAK1 (Homo sapiens, UniProt P23458); experiment: experiment of inhibiting kinase activity (Caliper mobility shift assay), JAK1; assay type: biochemical; conditions: read-out: inhibition rate JAK1; for inhibition at 0.01 µM: at 10 nM
Outline: as §1

TYK2 = TYK2 (Homo sapiens, UniProt P29597); experiment: experiment of inhibiting kinase activity, TYK2; assay type: biochemical; conditions: read-out: inhibition rate TYK2; for inhibition at 0.01 µM: at 10 nM
Method: as §2

JAK2 = JAK2 (Homo sapiens, UniProt O60674); experiment: experiment of inhibiting kinase activity (Caliper mobility shift assay), JAK2; assay type: biochemical; conditions: read-out: inhibition rate JAK2; for inhibition at 0.01 µM: at 10 nM
Outline: as §1

CDK7 = CDK7 (Homo sapiens, UniProt P50613); experiment: experiment of inhibiting kinase activity (Caliper mobility shift assay), CDK7; assay type: biochemical; conditions: at 100 nM; read-out: inhibition rate CDK7
Outline: as §1

JAK3 = molecular target: T3, JAK3 (Homo sapiens, UniProt P52333); experiment: experiment of inhibiting kinase activity (Caliper mobility shift assay), JAK3; assay type: biochemical; conditions: at 100 nM; read-out: inhibition rate JAK3
T3 sequence (P52333 1-1124): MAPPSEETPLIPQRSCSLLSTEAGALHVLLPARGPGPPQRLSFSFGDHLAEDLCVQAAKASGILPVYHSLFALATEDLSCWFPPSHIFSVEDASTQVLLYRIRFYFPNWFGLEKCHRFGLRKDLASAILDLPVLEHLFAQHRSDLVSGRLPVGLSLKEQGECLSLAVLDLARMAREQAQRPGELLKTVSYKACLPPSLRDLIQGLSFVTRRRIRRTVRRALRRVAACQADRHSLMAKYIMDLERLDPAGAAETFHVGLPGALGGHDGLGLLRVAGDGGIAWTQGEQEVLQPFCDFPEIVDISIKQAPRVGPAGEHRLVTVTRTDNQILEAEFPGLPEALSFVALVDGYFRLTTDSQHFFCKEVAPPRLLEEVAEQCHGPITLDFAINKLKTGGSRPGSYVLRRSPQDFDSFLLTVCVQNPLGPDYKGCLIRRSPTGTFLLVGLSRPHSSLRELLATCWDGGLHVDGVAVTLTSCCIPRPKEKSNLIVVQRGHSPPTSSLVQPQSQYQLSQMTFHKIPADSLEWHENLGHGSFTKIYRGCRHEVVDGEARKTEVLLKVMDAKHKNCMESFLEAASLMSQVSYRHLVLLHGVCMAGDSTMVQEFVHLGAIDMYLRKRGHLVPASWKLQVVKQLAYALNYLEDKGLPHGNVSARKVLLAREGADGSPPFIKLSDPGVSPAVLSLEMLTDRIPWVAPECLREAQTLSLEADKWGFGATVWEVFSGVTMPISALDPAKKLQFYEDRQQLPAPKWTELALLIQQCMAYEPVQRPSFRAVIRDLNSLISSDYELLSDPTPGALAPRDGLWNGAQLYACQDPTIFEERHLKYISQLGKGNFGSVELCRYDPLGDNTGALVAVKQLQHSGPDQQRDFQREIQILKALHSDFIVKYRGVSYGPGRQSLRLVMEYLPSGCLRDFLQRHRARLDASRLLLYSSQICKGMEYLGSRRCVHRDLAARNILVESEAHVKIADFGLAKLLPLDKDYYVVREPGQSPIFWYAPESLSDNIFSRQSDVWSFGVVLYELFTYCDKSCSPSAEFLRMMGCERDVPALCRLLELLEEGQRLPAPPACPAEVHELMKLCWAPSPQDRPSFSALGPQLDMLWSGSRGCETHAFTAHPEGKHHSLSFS
Outline: as §1

Chain of CDK9 (P50750 whole entry): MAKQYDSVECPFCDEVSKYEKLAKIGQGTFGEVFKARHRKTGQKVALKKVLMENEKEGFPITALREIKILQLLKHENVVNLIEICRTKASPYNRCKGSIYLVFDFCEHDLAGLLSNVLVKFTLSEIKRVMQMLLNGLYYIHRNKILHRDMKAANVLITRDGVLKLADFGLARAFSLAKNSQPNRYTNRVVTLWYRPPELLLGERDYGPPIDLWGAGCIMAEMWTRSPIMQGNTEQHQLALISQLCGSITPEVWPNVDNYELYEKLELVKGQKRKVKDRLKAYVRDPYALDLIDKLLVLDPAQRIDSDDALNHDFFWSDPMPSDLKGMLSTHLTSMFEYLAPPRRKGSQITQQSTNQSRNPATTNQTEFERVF
Chain of CDK9 (O60563 whole entry partner): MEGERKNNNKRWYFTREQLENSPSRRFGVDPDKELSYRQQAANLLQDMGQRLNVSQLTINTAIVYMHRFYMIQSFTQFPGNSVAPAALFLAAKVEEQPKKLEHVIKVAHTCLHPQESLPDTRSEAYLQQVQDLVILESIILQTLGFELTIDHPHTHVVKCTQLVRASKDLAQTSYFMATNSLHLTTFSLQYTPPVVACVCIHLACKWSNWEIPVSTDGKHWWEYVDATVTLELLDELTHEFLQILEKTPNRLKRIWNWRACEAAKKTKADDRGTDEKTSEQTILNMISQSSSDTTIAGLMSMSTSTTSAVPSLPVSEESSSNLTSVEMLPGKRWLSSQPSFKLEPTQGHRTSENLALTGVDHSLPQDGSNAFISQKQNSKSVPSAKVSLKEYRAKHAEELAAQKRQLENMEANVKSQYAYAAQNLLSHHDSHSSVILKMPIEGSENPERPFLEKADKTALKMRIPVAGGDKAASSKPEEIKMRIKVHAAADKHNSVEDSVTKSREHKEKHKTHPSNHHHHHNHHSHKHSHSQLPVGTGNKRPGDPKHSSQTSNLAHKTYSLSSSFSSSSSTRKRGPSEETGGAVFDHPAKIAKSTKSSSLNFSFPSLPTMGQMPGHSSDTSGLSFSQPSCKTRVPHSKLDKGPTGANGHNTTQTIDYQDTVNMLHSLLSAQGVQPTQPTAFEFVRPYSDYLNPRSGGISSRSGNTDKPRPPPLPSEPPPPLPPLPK
Chain of TYK2 (P29597 whole entry): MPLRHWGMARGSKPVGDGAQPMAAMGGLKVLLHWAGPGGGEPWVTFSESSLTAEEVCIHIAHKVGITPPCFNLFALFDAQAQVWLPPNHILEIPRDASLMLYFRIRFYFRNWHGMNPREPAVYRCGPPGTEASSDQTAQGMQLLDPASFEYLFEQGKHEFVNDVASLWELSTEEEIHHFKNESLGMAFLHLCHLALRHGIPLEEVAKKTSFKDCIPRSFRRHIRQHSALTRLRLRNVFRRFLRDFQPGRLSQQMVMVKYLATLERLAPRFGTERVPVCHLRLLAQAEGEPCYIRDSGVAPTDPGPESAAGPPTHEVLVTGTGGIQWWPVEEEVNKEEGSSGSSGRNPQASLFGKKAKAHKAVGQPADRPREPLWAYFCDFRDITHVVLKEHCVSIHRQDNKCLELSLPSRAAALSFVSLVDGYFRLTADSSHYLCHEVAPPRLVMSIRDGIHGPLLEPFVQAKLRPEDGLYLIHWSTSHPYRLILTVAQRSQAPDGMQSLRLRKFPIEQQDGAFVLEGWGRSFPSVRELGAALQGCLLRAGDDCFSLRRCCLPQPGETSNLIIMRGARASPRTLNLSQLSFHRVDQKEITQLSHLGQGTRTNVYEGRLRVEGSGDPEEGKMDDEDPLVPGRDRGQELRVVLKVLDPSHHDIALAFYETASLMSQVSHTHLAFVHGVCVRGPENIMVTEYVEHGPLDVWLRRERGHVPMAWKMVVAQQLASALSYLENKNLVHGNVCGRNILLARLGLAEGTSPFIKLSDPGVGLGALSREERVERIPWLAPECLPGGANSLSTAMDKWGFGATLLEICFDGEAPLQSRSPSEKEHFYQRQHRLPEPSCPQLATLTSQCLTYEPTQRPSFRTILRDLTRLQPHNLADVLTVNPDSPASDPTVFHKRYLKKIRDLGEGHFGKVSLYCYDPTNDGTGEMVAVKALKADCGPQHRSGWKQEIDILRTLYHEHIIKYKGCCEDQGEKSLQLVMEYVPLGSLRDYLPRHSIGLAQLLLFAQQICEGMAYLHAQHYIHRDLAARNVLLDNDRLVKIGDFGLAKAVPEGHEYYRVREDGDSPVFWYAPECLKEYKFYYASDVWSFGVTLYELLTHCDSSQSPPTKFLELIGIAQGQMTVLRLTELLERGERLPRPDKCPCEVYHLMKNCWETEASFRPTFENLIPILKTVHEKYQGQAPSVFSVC
Chain of JAK1 (P23458 whole entry): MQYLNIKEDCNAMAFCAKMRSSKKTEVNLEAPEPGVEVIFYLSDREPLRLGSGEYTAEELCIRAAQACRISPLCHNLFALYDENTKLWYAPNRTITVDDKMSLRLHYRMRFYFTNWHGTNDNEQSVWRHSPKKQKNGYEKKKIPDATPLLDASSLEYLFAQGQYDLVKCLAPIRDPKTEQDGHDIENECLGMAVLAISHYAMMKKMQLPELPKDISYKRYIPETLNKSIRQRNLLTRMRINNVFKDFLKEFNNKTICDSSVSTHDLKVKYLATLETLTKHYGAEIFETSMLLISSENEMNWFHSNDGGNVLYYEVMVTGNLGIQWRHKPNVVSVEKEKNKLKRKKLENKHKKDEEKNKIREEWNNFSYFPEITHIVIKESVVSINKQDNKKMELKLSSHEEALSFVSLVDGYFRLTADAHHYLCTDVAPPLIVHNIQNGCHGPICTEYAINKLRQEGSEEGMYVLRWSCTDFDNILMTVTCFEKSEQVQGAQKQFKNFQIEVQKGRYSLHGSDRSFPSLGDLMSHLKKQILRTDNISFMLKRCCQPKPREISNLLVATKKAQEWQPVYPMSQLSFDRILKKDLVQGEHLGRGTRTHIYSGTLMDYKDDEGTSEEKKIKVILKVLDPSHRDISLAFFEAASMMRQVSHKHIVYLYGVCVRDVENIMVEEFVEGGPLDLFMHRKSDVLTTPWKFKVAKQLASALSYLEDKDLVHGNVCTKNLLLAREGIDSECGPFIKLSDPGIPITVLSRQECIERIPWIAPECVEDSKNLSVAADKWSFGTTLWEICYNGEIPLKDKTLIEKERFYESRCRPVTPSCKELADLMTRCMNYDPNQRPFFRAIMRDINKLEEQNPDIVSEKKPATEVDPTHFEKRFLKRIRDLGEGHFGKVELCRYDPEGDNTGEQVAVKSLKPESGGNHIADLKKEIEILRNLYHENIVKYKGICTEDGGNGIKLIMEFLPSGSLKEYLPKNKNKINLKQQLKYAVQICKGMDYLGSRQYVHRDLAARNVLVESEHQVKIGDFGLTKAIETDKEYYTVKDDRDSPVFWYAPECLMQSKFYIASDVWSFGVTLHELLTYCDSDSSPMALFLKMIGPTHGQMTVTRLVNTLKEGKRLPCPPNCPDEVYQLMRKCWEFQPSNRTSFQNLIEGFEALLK
Chain of JAK2 (O60674 whole entry): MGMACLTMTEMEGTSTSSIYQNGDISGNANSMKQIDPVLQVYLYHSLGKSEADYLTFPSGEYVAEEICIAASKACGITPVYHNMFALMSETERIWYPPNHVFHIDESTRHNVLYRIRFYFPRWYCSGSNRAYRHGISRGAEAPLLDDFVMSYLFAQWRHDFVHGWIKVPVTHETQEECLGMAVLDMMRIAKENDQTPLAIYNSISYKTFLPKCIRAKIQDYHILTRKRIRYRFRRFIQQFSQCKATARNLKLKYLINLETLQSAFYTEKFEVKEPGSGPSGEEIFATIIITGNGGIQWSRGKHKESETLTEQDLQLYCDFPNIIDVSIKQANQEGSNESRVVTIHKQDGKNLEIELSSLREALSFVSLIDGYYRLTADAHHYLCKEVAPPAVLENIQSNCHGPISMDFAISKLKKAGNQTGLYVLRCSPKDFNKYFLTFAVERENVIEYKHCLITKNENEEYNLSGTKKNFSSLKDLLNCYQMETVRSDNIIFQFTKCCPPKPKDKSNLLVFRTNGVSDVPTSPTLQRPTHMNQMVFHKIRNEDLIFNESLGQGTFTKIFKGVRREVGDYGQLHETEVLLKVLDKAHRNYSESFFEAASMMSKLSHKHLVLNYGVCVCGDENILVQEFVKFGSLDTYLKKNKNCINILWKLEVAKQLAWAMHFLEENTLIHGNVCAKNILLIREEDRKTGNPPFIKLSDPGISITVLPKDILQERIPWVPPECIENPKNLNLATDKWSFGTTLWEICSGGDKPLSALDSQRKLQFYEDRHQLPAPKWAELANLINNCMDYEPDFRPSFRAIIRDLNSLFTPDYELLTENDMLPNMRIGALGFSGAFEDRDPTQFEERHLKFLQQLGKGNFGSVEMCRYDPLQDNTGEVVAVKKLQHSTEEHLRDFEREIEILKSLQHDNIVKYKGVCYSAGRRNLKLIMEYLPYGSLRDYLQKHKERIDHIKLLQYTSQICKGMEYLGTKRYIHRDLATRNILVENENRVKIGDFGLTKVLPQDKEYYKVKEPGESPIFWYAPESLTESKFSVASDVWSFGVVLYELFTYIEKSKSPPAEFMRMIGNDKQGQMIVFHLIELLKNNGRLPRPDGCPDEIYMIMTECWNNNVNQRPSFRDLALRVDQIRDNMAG

Row | IC50 (MV-4-11 cells) | inhibition at 0.01 µM (CDK9; read-out: inhibition rate CDK9) | IC50 (CDK9) | IC50 (LRRK2) | EC50 (LRRK2 (G2019S)) | EC50 (wild-type LRRK2) | solubility at 1 h ([1]; simulated gastric fluid, diluted hydrochloric acid solution A (pH-1.5), room temperature, 1 hour) | solubility ([1]; ultrapure water (pH-6), room temperature overnight) | inhibition at 0.01 µM (JAK1) | inhibition at 0.01 µM (LRRK2; at 10 nM, read-out: inhibition rate LRRK2) | inhibition at 0.01 µM (TYK2) | inhibition at 0.01 µM (JAK2) | inhibition at 0.1 µM (JAK1; at 100 nM) | inhibition at 0.1 µM (LRRK2; at 100 nM, read-out: inhibition rate LRRK2) | inhibition at 0.1 µM (CDK7) | inhibition at 0.1 µM (CDK9; at 100 nM, read-out: inhibition rate CDK9) | inhibition at 0.1 µM (JAK3) | inhibition at 0.1 µM (TYK2; at 100 nM) | inhibition at 0.1 µM (JAK2; at 100 nM) | Structure (SMILES)
1 | 100 to 1000 nM | 40 to 79% | < 50 nM | – | – | – | – | – | – | – | – | – | – | – | – | – | – | – | – | COc1ccc(F)cc1-c1nc(Nc2ccc3c(c2)OCCN(C)CCOCCO3)ncc1F [Example 114, N-(5-fluoro-4-(5-fluoro-2-methoxyphenyl)pyrimidin-2-yl)-7-methyl-2,3,6,7,8,9-hexahydro-5H-benzo[b][1,4,7]trioxa[10]azacyclododecan-12-amine]
2 | – | – | – | < 50 nM | < 500 nM | < 500 nM | > 3070 µg/mL | 368 µg/mL (≈ 740 µM) | – | – | – | – | – | – | – | – | – | – | – | CN1CCOCCOc2ccc(Nc3nc(O[C@H]4CC[C@@](C)(O)CC4)c4cc[nH]c4n3)cc2OCC1 [Example 6, 1-methyl-4-((2-((7-methyl-2,3,6,7,8,9-hexahydro-5H-benzo[b][1,4,7]trioxa[10]azacyclododecan-12-yl)amino)-7H-pyrrolo[2,3-d]pyrimidin-4-yl)oxy)cyclohexanol]
3 | – | – | – | < 50 nM | < 500 nM | < 500 nM | – | – | 25 to 39% | > 80% | 40 to 79% | > 80% | – | – | – | – | – | – | – | CN1CCOc2ccc(Nc3ncc(C(F)(F)F)c(Nc4ccccc4P(C)(C)=O)n3)cc2OCC1 [Example 83, dimethyl(2-((2-((4-methyl-3,4,5,6-tetrahydro-2H-benzo[b][1,4,7]dioxazolin-9-yl)amino)-5-(trifluoromethyl)pyrimidin-4-yl)amino)phenyl)phosphine oxide]
4 | < 100 nM | 40 to 79% | < 50 nM | – | – | – | – | – | 25 to 39% | – | 40 to 79% | > 80% | > 80% | 40 to 79% | 40 to 79% | > 80% | 40 to 79% | > 80% | > 80% | CN1CCOCCOc2ccc(Nc3ncc(F)c(-c4ccc(C(=O)NCC#N)cc4)n3)cc2OCC1 [Example 44, N-(cyanomethyl)-4-(5-fluoro-2-((7-methyl-2,3,6,7,8,9-hexahydro-5H-benzo[b] [1,4,7]trioxa[10]azacyclododecan-12-yl)amino)pyrimidin-4-yl)benzamide]
